Laboratory results from PMC4939875 (Nature, 2016).

How the values were obtained:
TONSL ARD = assay: GST-histone tail pull-down with recombinant TONSL ARD; assay type: binding, human; details: GST-H3 tail (1–59), GST-H4 tail (1–31); 20 mM Tris pH 7.5, 0.5 M NaCl; SDS-PAGE
[1] = system: TONSL acidic stretch and ARD (a.a. 450-692); assay: ITC of TONSL acidic stretch and ARD; assay type: binding, human; details: TONSL a.a. 450-692, H3K9me1 (a.a. 1-21), 20 mM Tris pH 7.5, 0.5 M NaCl

## GST-H4 tail: GST-tagged human histone H4 fragment 1–31
TONSL ARD
  binding of TONSL ARD to GST-histone tail: binds

## H3K9me1: peptide of H3(1-21)K9me1 (mono-methylation on Lys9)
[1]
  interaction between TONSL ARD with acidic stretch and H3K9me1 peptide: unable to detect an interaction
